Data on 1 compound can be found in US7897591B2, “Method of treating fatty liver disease” (priority 2005, dated 2011).

Data set [1] relates to C57BL/6 mice. Description: Fatty acid analysis of serum and liver lipids (triglycerides, phospholipids) in HCD mouse model. Type of data set: in vivo. How it is done: Experiments were performed on 5-6 week-old C57BL/6 mice (Jackson Laboratories, Bar Harbor, Me.). The animals, in groups of five, were housed in a barrier room and were acclimated to their environment for at least 72 hours prior to the initiation of each experiment. Animal protocols complied with the NIH Animal Research Advisory Committee guidelines and were approved by the Children's Hospital Boston Animal Care and Use Committee. Control animals (n=5) received normal chow and water ad libitum. All animals in the experimental groups were fed a fat-free, high carbohydrate liquid diet (HCD) ad libitum placed in one bottle per cage as previously described (3, 62). No additional sources of nutrition or hydration were provided. The HCD liquid solution contained 20% dextrose, a commercial mixture of 2% essential and nonessential amino acids (TrophAmine, B. Braun Medical, Irvine, Calif.), 2 ml trace elements (Trace Elements Injection 4, USP—Pediatric, American Regent Shirley, N.Y.), and 5 ml multivitamins (M.V.I. Pediatric™, Mayne Pharma, Paramus, N.J.). Each liter of HCD contained 30 meq sodium, 20 meq potassium chloride, 15 meq calcium, 10 meq magnesium, and 10 mM phosphate. The bottles were replaced daily with fresh HCD solution. HCD animals (n=5) received HCD only and no additional treatment for 19 days. The HCD+MAR animals (n=15) additionally received 100 mg/kg of Marimastat™ in 0.45% methylcellulose (Sigma-Aldrich Corporation, St. Louis, Mo.) vehicle twice daily via orogastric gavage. The animals were individually weighed every third day and at sacrifice. Fatty acid analysis was conducted as described previously (1, 2, 31). Briefly, lipids were extracted from serum and livers, and then fractionated into triglycerides and phospholipids by solid phase chromatography using an aminopropyl column. After appropriate processing, samples were injected into a Hewlett Packard 5890A gas chromatograph for analysis.

The next data set deals with PPAR-α. Description: Western blot densitometry of liver PPAR-α. Format: in vivo, mouse. Particulars: HCD+MAR mice; nuclear + cytosolic summed; mean±SEM; P<0.02 vs HCD-only (11.5±4.4). How it is done: Control animals (n=5) received normal chow and water ad libitum. All animals in the experimental groups were fed a fat-free, high carbohydrate liquid diet (HCD) ad libitum placed in one bottle per cage as previously described (3, 62). No additional sources of nutrition or hydration were provided. The HCD liquid solution contained 20% dextrose, a commercial mixture of 2% essential and nonessential amino acids (TrophAmine, B. Braun Medical, Irvine, Calif.), 2 ml trace elements (Trace Elements Injection 4, USP—Pediatric, American Regent Shirley, N.Y.), and 5 ml multivitamins (M.V.I. Pediatric™, Mayne Pharma, Paramus, N.J.). Each liter of HCD contained 30 meq sodium, 20 meq potassium chloride, 15 meq calcium, 10 meq magnesium, and 10 mM phosphate. The bottles were replaced daily with fresh HCD solution. HCD animals (n=5) received HCD only and no additional treatment for 19 days. The HCD+MAR animals (n=15) additionally received 100 mg/kg of Marimastat™ in 0.45% methylcellulose (Sigma-Aldrich Corporation, St. Louis, Mo.) vehicle twice daily via orogastric gavage. The animals were individually weighed every third day and at sacrifice. […] The assay was read at 595 nm and analyzed with Softmax® PRO Software (Molecular Devices Corporation, Sunnyvale, Calif.). 30 ug of protein per sample were analyzed by SDS-PAGE. […]
On the technique in general: In western blotting, separated proteins are transferred to a membrane and probed.

Data set [2] has as its system C57BL/6 mice. The data set can be described thus: General observations: survival, stool, body weight, macroscopic liver appearance and weight. Type of data set: in vivo, mouse. How it is done:
Experiments were performed on 5-6 week-old C57BL/6 mice (Jackson Laboratories, Bar Harbor, Me.). The animals, in groups of five, were housed in a barrier room and were acclimated to their environment for at least 72 hours prior to the initiation of each experiment. Animal protocols complied with the NIH Animal Research Advisory Committee guidelines and were approved by the Children's Hospital Boston Animal Care and Use Committee.
Control animals (n=5) received normal chow and water ad libitum. All animals in the experimental groups were fed a fat-free, high carbohydrate liquid diet (HCD) ad libitum placed in one bottle per cage as previously described (3, 62). No additional sources of nutrition or hydration were provided. The HCD liquid solution contained 20% dextrose, a commercial mixture of 2% essential and nonessential amino acids (TrophAmine, B. Braun Medical, Irvine, Calif.), 2 ml trace elements (Trace Elements Injection 4, USP—Pediatric, American Regent Shirley, N.Y.), and 5 ml multivitamins (M.V.I. Pediatric™, Mayne Pharma, Paramus, N.J.). Each liter of HCD contained 30 meq sodium, 20 meq potassium chloride, 15 meq calcium, 10 meq magnesium, and 10 mM phosphate. The bottles were replaced daily with fresh HCD solution. HCD animals (n=5) received HCD only and no additional treatment for 19 days. The HCD+MAR animals (n=15) additionally received 100 mg/kg of Marimastat™ in 0.45% methylcellulose (Sigma-Aldrich Corporation, St. Louis, Mo.) vehicle twice daily via orogastric gavage. The animals were individually weighed every third day and at sacrifice.
We then performed a midline laparotomy to observe, excise, and weigh the liver. Approximately one half of the liver was fixed in 10% formalin at 4° C. overnight, washed with phosphate buffered saline, and then embedded in paraffin. After cutting 5 μm sections, slides were stained at the Department of Pathology, Children's Hospital Boston with H&E to examine cellular architecture and lipid accumulation, and with periodic acid-Schiff (PAS) to identify the presence of glycogen.

Regarding `CNC(=O)[C@@H](NC(=O)[C@H](CC(C)C)[C@H](O)C(=O)NO)C(C)(C)C` [Marimastat], in the data set with C57BL/6 mice [1] (HCD+MAR vs HCD, remained higher than in controls), the hepatic triglyceride level entry is “significantly reduced”. Further, the “serum triglyceride and phospholipids” value in the data set with C57BL/6 mice [1] (HCD+MAR, reduced in HCD-only compared to control) is recorded as “normalized”. The hepatic phospholipids entry in the data set with C57BL/6 mice [1] (among the three groups) is reported as “no significant differences”. In addition, the “PPAR-α level, Western blot densitometry” value in the data set with PPAR-α came to 151.7±3.4. In the data set with C57BL/6 mice [2] (19 day protocol), the survival entry is recorded as “All animals survived”. The liver weight entry in the data set on C57BL/6 mice [2] (mouse, in vivo) is on record as “no significant difference”. Besides, the “stool / bowel integrity” value in the data set with C57BL/6 mice [2] (mouse, in vivo, 100 mg/kg) is given as “soft stool without gross signs of loss of bowel integrity”.
